Measurements reported in ChEMBL document CHEMBL5241090, “A comprehensive overview of β-carbolines and its derivatives as anticancer agents” (Eur J Med Chem, 2021).
Values after ≈ are worked out from the molar mass of the structure shown.

What was measured:
SK-OV-3 = assay: Antiproliferative activity against human SK-OV-3 cells; type: functional, cell-based
A2780 = assay: Antiproliferative activity against human A2780 cells; type: functional, cell-based
[1] = Cytotoxicity against mouse P388 cells; type: functional, cell-based
KB [2] = assay: Cytotoxicity against human Vincristine-resistant KB cells; type: functional, cell-based; details: pooled result: one value given for 6 cell lines, strains, targets or settings
[3] = test system: Panel NCI-60 (60 carcinoma cell lines); assay: Cytotoxicity against human Panel NCI-60 (60 carcinoma cell lines); type: functional, cell-based
L5178Y = assay: Cytotoxicity against mouse L5178Y cells incubated 72 hrs; type: functional, cell-based; details: time 72 hrs, read-out: ED50 (the source's name)
HT-29 = assay: Growth inhibition of human HT-29 cells incubated for 72 hrs by SRB assay; type: functional, cell-based; details: HT-29, 72 h
A549 [4] = assay: Growth inhibition of human A549 cells incubated for 72 hrs by SRB assay; type: functional, cell-based; details: A549, 72 h
MDA-MB-231 = assay: Growth inhibition of human MDA-MB-231 cells incubated for 72 hrs by SRB assay; type: functional, cell-based; details: MDA-MB-231, 72 h
KB [5] = assay: Cytotoxicity against human KB cells; type: functional, cell-based; details: Homo sapiens, KB; read-out: IC50
MCF7 [6] = assay: Cytotoxicity against human MCF7 cells incubated for 48 hrs by neutral red dye based assay; type: functional, cell-based; details: MCF7, 48 h
A549 [7] = assay: Cytotoxicity against human A549 cells incubated for 48 hrs by neutral red dye based assay; type: functional, cell-based; details: A549, 48 h
HCT-116 [8] = assay: Cytotoxicity against human HCT-116 cells incubated for 48 hrs by neutral red dye based assay; type: functional, cell-based; details: HCT-116, 48 h
CNE-2 = assay: Cytotoxicity against human CNE-2 cells incubated for 48 hrs by MTT assay; type: functional, cell-based; details: CNE-2, 48 h
L1210 = assay: Cytotoxicity against mouse L1210 cells; type: functional, cell-based
MCF7 [9] = assay: Cytotoxicity against human MCF7 cells; type: functional, cell-based
HCT-116 [10] = assay: Cytotoxicity against human HCT-116 cells; type: functional, cell-based
DNA topoisomerase 1 = target: T1, DNA topoisomerase 1 (Homo sapiens, UniProt P11387); assay: Inhibition of Topoisomerase 1 (unknown origin)
T1 sequence (P11387 whole entry): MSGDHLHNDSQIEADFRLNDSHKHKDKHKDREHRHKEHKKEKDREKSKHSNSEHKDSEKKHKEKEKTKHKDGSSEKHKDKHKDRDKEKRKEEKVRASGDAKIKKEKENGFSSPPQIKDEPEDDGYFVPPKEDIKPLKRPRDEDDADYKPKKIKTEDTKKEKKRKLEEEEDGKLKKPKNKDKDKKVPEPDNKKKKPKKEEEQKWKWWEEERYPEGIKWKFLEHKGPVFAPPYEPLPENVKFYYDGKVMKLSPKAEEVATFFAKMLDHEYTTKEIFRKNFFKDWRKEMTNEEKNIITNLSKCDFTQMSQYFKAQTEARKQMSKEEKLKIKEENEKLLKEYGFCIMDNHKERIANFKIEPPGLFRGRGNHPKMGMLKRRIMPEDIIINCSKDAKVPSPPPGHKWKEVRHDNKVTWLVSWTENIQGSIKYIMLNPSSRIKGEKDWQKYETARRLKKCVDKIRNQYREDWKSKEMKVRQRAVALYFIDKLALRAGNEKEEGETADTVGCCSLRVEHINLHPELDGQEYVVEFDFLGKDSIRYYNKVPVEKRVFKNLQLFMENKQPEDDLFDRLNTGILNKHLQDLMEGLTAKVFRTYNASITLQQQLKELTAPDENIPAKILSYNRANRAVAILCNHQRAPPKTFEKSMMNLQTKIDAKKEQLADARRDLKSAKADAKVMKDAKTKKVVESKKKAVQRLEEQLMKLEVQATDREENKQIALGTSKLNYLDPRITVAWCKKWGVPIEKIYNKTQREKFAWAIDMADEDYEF

A549 [11] = assay: Cytotoxicity against human A549 cells; type: functional, cell-based
NCI-H1299 = assay: Cytotoxicity against human NCI-H1299 cells; type: functional, cell-based
HepG2 = assay: Cytotoxicity against human HepG2 cells after 48 hrs incubation by SRB assay; type: functional, cell-based; details: HepG2, 48 h
Hep 3B2 = assay: Cytotoxicity against human Hep3B cells after 48 hrs incubation by SRB assay; type: functional, cell-based

C=Cc1ncc(OC)c2c1[nH]c1ccccc12
IC50 (SK-OV-3): 15.7 µg/mL
IC50 (A2780): 4.77 µg/mL

O=c1ccc2nccc3c4ccc(O)cc4n1c23
IC50 [1]: 1.5 µg/mL (≈ 6.35 µM)
IC50 (KB [2]): 1.5 µg/mL (≈ 6.35 µM)

COc1ccc2nc(-c3cc4c([nH]c5ccccc54)c(-c4ccc(F)c(F)c4)n3)[nH]c2c1
IC50 [3]: 0.3 µM

O[C@]12C=C(c3nccc4c3[nH]c3ccccc34)[C@@H]3CCN(CCCC/C=C\CC1)C[C@@]31CC34CCC(CCCN3[C@H]12)O4
EC50 (L5178Y): 1.8 µg/mL (≈ 3.19 µM)

COc1ccc2[nH]c3cnc(-c4c[nH]c5cc(O)ccc45)c(C(=O)O)c3c2c1
IC50 (HT-29): 35 µg/mL (≈ 93.7 µM)
IC50 (A549 [4]): 100 µg/mL (≈ 268 µM)
IC50 (MDA-MB-231): 90 µg/mL (≈ 241 µM)

Oc1ccc2[nH]c3c(C4=C[C@@]5(O)CC/C=C\CCCCN6CC[C@@H]4[C@@]4(C6)CC67CCC(CCCN6[C@H]45)O7)nccc3c2c1
IC50 (KB [5]): 7.9 µg/mL (≈ 13.6 µM)

O=C1NCCc2c1[nH]c1ccccc21
IC50 (MCF7 [6]): 8.27 µg/mL (≈ 44.4 µM)
IC50 (A549 [7]): 10.1 µg/mL (≈ 54.3 µM)
IC50 (HCT-116 [8]): 7.45 µg/mL (≈ 40 µM)

C[n+]1ccc2c3ccccc3n3c2c1CC(=O)C3=O
IC50 (CNE-2): 23.7 µg/mL

O[C@H]1[C@H]2[C@@H]3c4[nH]c5ccccc5c4CCN3CN3CCCC/C=C\CC[C@@]45CN(CCCC/C=C\CC[C@@]1(O)[C@H]34)CC[C@@H]25
IC50 (L1210): 4.4 µg/mL (≈ 7.52 µM)

[O-][n+]1ccc2c([nH]c3ccccc32)c1C1=C[C@@]2(O)CC/C=C\CCCCN3CC[C@@H]1[C@]1(CC4/C=C\CCCCN4[C@H]12)C3 (some centres undefined)
EC50 (L5178Y): 1.6 µg/mL (≈ 2.83 µM)

CNc1nccc(-c2nccc3c2[nH]c2ccccc23)n1
IC50 (MCF7 [9]): 4.33 µM
IC50 (HCT-116 [10]): 2.9 µM

C=Cc1ncc(OC)c2c3ccccc3n(OC)c12
IC50 (SK-OV-3): 66.6 µM
IC50 (A2780): 14.8 µM

[O-][n+]1ccc2c([nH]c3ccccc32)c1C1=C[C@@]2(O)CC/C=C\CCCCN3CC[C@@H]1[C@]1(CC/C=C\CCCCN[C@H]12)C3
EC50 (L5178Y): 3.2 µg/mL (≈ 5.65 µM)

COc1c(OC)c2nccc3c4cc(O)ccc4n(c1=O)c23
IC50 (CNE-2): 11.6 µg/mL (≈ 39.2 µM)

c1ccc2c(c1)[nH]c1cnccc12 [NORHARMANE]
IC50 (DNA topoisomerase 1): 31 µM

COc1ccc2c3ccnc4ccc(=O)n(c2c1)c43
IC50 [1]: 1.4 µg/mL (≈ 5.59 µM)
IC50 (KB [2]): 1.4 µg/mL (≈ 5.59 µM)

[O-][N+]1=C(C2=C[C@@]3(O)CC/C=C\CCCCN4CC[C@@H]2[C@]2(CC5/C=C\CCCCN5[C@H]23)C4)c2[nH]c3ccccc3c2CC1 (some centres undefined)
EC50 (L5178Y): 1.6 µg/mL (≈ 2.82 µM)

Oc1ccc2[nH]c3c(C4=C[C@@]5(O)CC/C=C\CCCCN6CC[C@@H]4[C@]4(C[C@@H]7/C=C\CCCCN7[C@H]45)C6)nccc3c2c1 [MANZAMINE Y]
IC50 (KB [5]): 2.5 µg/mL (≈ 4.43 µM)
IC50 (L1210): 1.5 µg/mL (≈ 2.66 µM)

Nc1nccc(C2=NCCc3c2[nH]c2ccccc32)n1
IC50 (MCF7 [6]): 2.81 µg/mL (≈ 10.7 µM)
IC50 (A549 [7]): 1.92 µg/mL (≈ 7.29 µM)
IC50 (HCT-116 [8]): 0.59 µg/mL (≈ 2.24 µM)

Oc1ccc2[nH]c3c(C4=C[C@@]5(O)CC/C=C\CCCCN6CC[C@@H]4[C@]4(CC7/C=C\CCCCN7[C@H]45)C6)nccc3c2c1 (some centres undefined)
IC50 (KB [5]): 7.3 µg/mL (≈ 12.9 µM)

COc1nccc2c1[nH]c1ccccc12
IC50 (SK-OV-3): 22.3 µg/mL
IC50 (A2780): 9.72 µg/mL

CC(C=O)CNc1nccc(-c2nccc3c2[nH]c2ccccc23)n1 (centres undefined)
IC50 (MCF7 [9]): 6.05 µM
IC50 (HCT-116 [10]): 3.35 µM

CC(=O)c1nc(C(=O)NCCc2c[nH]c3ccccc23)cc2c1[nH]c1ccccc12 [MARINACARBOLINE D]
IC50 (A549 [11]): 15 µM
IC50 (NCI-H1299): 15 µM
IC50 (HCT-116 [10]): 15 µM

O=c1ccc2c3c(cc[n+]2[O-])c2ccc(O)cc2n13
IC50 [1]: 3.5 µg/mL (≈ 13.9 µM)
IC50 (KB [2]): 3.5 µg/mL (≈ 13.9 µM)

N[C@@H]1CSCON2CCc3c([nH]c4cc(Br)ccc34)[C@H]12
IC50 [1]: 0.01 µg/mL (≈ 0.0282 µM)

COc1cnc(C(=O)[C@@H](CC(=O)c2nccc3c2[nH]c2ccccc23)OC)c2[nH]c3ccccc3c12
IC50 (HepG2): > 50 µM
IC50 (Hep 3B2): 31.4 µM

O[C@]12C=C(c3nccc4c3[nH]c3ccccc34)[C@@H]3CCN(CCCC/C=C\CC1)C[C@@]31C[C@@H]3/C=C\CCCCN3[C@H]12 [MANZAMINE A]
IC50 [1]: 0.07 µg/mL (≈ 0.128 µM)

COc1cnc(C(=O)[C@H](Cc2nccc3c2[nH]c2ccccc23)OC)c2[nH]c3ccccc3c12
IC50 (HepG2): 27.5 µM
IC50 (Hep 3B2): 46.2 µM

O[C@]12C=C(c3nccc4c3[nH]c3ccccc34)[C@@H]3CCN(CCCC/C=C\CC1)C[C@@]31CC/C=C\CCCCN[C@H]12 [MANZAMINE J]
IC50 (L1210): 2.6 µg/mL (≈ 4.72 µM)

O=C1CCCCN2[C@@H](C1)C[C@]13CN4CCCC/C=C\CC[C@](O)(C=C(c5nccc6c5[nH]c5c(O)cccc56)[C@@H]1CC4)[C@H]23
IC50 [1]: 5 µg/mL (≈ 8.61 µM)
